ChEMBL document CHEMBL4680060, “Polybasic peptide-levofloxacin conjugates potentiate fluoroquinolones and other classes of antibiotics against multidrug-resistant Gram-negative bacteria” (Medchemcomm, 2019)
Converted amounts (≈) assume the structure as drawn. The source made the active and inactive calls. No cut-off for these calls is given here.

What was measured:
Staphylococcus aureus [1] = test: Antibacterial activity against Staphylococcus aureus ATCC 29213 assessed as inhibition of visible growth incubated for 18 hrs by CLSI protocol based microbroth dilution method; assay type: functional
Staphylococcus aureus [2] = test: Antibacterial activity against methicillin-resistant Staphylococcus aureus ATCC 33592 assessed as inhibition of visible growth incubated for 18 hrs by CLSI protocol based microbroth dilution method; assay type: functional
[3] = test system: Staphylococcus epidermidis; test: Antibacterial activity against methicillin-susceptible Staphylococcus epidermidis clinical isolate CANWARD-2008 81388 assessed as inhibition of visible growth incubated for 18 hrs by CLSI protocol based microbroth dilution method; assay type: functional
Streptococcus pneumoniae = test: Antibacterial activity against Streptococcus pneumoniae ATCC 49619 assessed as inhibition of visible growth incubated for 18 hrs by CLSI protocol based microbroth dilution method; assay type: functional
[4] = test system: Stenotrophomonas maltophilia; test: Antibacterial activity against Stenotrophomonas maltophilia clinical isolate CAN-ICU 62584 assessed as inhibition of visible growth incubated for 18 hrs by CLSI protocol based microbroth dilution method; assay type: functional
Acinetobacter baumannii [5] = test: Antibacterial activity against Acinetobacter baumannii clinical isolate CAN-ICU 63169 assessed as inhibition of visible growth incubated for 18 hrs by CLSI protocol based microbroth dilution method; assay type: functional
Pseudomonas aeruginosa [6] = test: Synergistic antibacterial activity against wild type Pseudomonas aeruginosa PAO1 assessed as fractional inhibitory concentration index in presence of ciprofloxacin by Checkerboard assay; assay type: functional
Pseudomonas aeruginosa [7] = test: Synergistic antibacterial activity against wild type Pseudomonas aeruginosa PAO1 assessed as fractional inhibitory concentration index in presence of levofloxacin by Checkerboard assay; assay type: functional
Pseudomonas aeruginosa [8] = test: Potentiation of moxifloxacin-induced antibacterial activity against wild type Pseudomonas aeruginosa PAO1 assessed as […] measured after 18 hrs by CLSI protocol based microbroth dilution method relative to moxifloxacin MIC; assay type: functional
Pseudomonas aeruginosa [9] = test: Additive antibacterial activity against MexAB-OprM efflux pump deficient Pseudomonas aeruginosa PAO200 in presence of levofloxacin by Checkerboard assay; assay type: functional, organism-based
Pseudomonas aeruginosa [10] = test: Additive antibacterial activity against MexAB-OprM efflux pump deficient Pseudomonas aeruginosa PAO200 in presence of moxifloxacin by Checkerboard assay; assay type: functional, organism-based
Pseudomonas aeruginosa [11] = test: Synergistic antibacterial activity against wild type Pseudomonas aeruginosa PAO1 in presence of levofloxacin by Checkerboard assay; assay type: functional, organism-based
Pseudomonas aeruginosa [12] = test: Synergistic antibacterial activity against wild type Pseudomonas aeruginosa PAO1 in presence of moxifloxacin by Checkerboard assay; assay type: functional, organism-based
Pseudomonas aeruginosa [13] = test: Synergistic antibacterial activity against multidrug resistant Pseudomonas aeruginosa PA259 in presence of ciprofloxacin by Checkerboard assay; assay type: functional, organism-based
Pseudomonas aeruginosa [14] = test: Synergistic antibacterial activity against multidrug resistant Pseudomonas aeruginosa PA259 in presence of levofloxacin by Checkerboard assay; assay type: functional, organism-based
Pseudomonas aeruginosa [15] = test: Synergistic antibacterial activity against multidrug resistant Pseudomonas aeruginosa PA259 in presence of moxifloxacin by Checkerboard assay; assay type: functional, organism-based
Pseudomonas aeruginosa [16] = test: Synergistic antibacterial activity against multidrug resistant Pseudomonas aeruginosa PA260 in presence of moxifloxacin by Checkerboard assay; assay type: functional, organism-based
Pseudomonas aeruginosa [17] = test: Synergistic antibacterial activity against multidrug resistant Pseudomonas aeruginosa PA262 in presence of moxifloxacin by Checkerboard assay; assay type: functional, organism-based
Pseudomonas aeruginosa [18] = test: Synergistic antibacterial activity against multidrug resistant Pseudomonas aeruginosa PA100036 in presence of levofloxacin by Checkerboard assay; assay type: functional, organism-based
Pseudomonas aeruginosa [19] = test: Synergistic antibacterial activity against multidrug resistant Pseudomonas aeruginosa PA101885 in presence of ciprofloxacin by Checkerboard assay; assay type: functional, organism-based
Escherichia coli [20] = test: Additive antibacterial activity against Escherichia coli 107115 in presence of ciprofloxacin by Checkerboard assay; assay type: functional, organism-based
Escherichia coli [21] = test: Additive antibacterial activity against Escherichia coli 94474 in presence of ciprofloxacin by Checkerboard assay; assay type: functional, organism-based
Escherichia coli [22] = test: Synergistic antibacterial activity against Escherichia coli ATCC 25922 in presence of levofloxacin by Checkerboard assay; assay type: functional, organism-based
Escherichia coli [23] = test: Synergistic antibacterial activity against Escherichia coli 107115 in presence of levofloxacin by Checkerboard assay; assay type: functional, organism-based
Escherichia coli [24] = test: Synergistic antibacterial activity against Escherichia coli ATCC 25922 in presence of moxifloxacin by Checkerboard assay; assay type: functional, organism-based
Escherichia coli [25] = test: Synergistic antibacterial activity against Escherichia coli 94393 in presence of moxifloxacin by Checkerboard assay; assay type: functional, organism-based
Klebsiella pneumoniae = test: Synergistic antibacterial activity against Klebsiella pneumoniae 116381 in presence of moxifloxacin by Checkerboard assay; assay type: functional, organism-based
Acinetobacter baumannii [26] = test: Synergistic antibacterial activity against Acinetobacter baumannii ATCC 17978 in presence of ciprofloxacin by Checkerboard assay; assay type: functional, organism-based
Acinetobacter baumannii [27] = test: Synergistic antibacterial activity against Acinetobacter baumannii ATCC 17978 in presence of levofloxacin by Checkerboard assay; assay type: functional, organism-based
Acinetobacter baumannii [28] = test: Synergistic antibacterial activity against Acinetobacter baumannii ATCC 17978 in presence of moxifloxacin by Checkerboard assay; assay type: functional, organism-based
Acinetobacter baumannii [29] = test: Synergistic antibacterial activity against multidrug resistant Acinetobacter baumannii AB027 assessed as fractional inhibitory concentration index in presence of ciprofloxacin by Checkerboard assay; assay type: functional
Acinetobacter baumannii [30] = test: Synergistic antibacterial activity against multidrug resistant Acinetobacter baumannii AB027 assessed as fractional inhibitory concentration index in presence of levofloxacin by Checkerboard assay; assay type: functional
Acinetobacter baumannii [31] = test: Synergistic antibacterial activity against multidrug resistant Acinetobacter baumannii AB027 assessed as fractional inhibitory concentration index in presence of moxifloxacin by Checkerboard assay; assay type: functional
Pseudomonas aeruginosa [32] = test: Potentiation of chloramphenicol-induced antibacterial activity against wild type Pseudomonas aeruginosa PAO1 measured after 18 hrs by CLSI protocol based microbroth dilution method; assay type: functional, organism-based
Pseudomonas aeruginosa [33] = test: Potentiation of linezolid-induced antibacterial activity against wild type Pseudomonas aeruginosa PAO1 measured after 18 hrs by CLSI protocol based microbroth dilution method; assay type: functional, organism-based
Pseudomonas aeruginosa [34] = test: Potentiation of clindamycin-induced antibacterial activity against wild type Pseudomonas aeruginosa PAO1 measured after 18 hrs by CLSI protocol based microbroth dilution method; assay type: functional, organism-based
Pseudomonas aeruginosa [35] = test: Potentiation of pleuromutilin-induced antibacterial activity against wild type Pseudomonas aeruginosa PAO1 measured after 18 hrs by CLSI protocol based microbroth dilution method; assay type: functional, organism-based
Pseudomonas aeruginosa [36] = test: Potentiation of ceftazidime-induced antibacterial activity against wild type Pseudomonas aeruginosa PAO1 measured after 18 hrs by CLSI protocol based microbroth dilution method; assay type: functional, organism-based
Pseudomonas aeruginosa [37] = test: Potentiation of rifampicin-induced antibacterial activity against wild type Pseudomonas aeruginosa PAO1 measured after 18 hrs by CLSI protocol based microbroth dilution method; assay type: functional, organism-based

C[C@H]1COc2c(N3CCN(C)CC3)c(F)cc3c(=O)c(C(=O)NCCCCCCCCCCCC(=O)N[C@@H](CCN)C(=O)N[C@@H](CCN)C(N)=O)cn1c23
MIC (Staphylococcus aureus [1]): 128 µg/mL (≈ 169 µM) | MIC (Staphylococcus aureus [2]): > 128 µg/mL | MIC [3]: 64 µg/mL (≈ 84.4 µM) | MIC (Streptococcus pneumoniae): > 128 µg/mL | MIC [4]: > 128 µg/mL | MIC (Acinetobacter baumannii [5]): > 128 µg/mL | fractional inhibitory concentration index (FICI) (Pseudomonas aeruginosa [6]): 0.313 | fractional inhibitory concentration index (FICI) (Pseudomonas aeruginosa [7]): 0.5 | Ratio (Pseudomonas aeruginosa [8]): 4 | Activity (Pseudomonas aeruginosa [9]): Active | Activity (Pseudomonas aeruginosa [10]): Active | Activity (Pseudomonas aeruginosa [11]): Active | Activity (Pseudomonas aeruginosa [12]): Active | Activity (Pseudomonas aeruginosa [13]): Active | Activity (Pseudomonas aeruginosa [14]): Active | Activity (Pseudomonas aeruginosa [15]): Active | Activity (Pseudomonas aeruginosa [16]): Active | Activity (Pseudomonas aeruginosa [17]): Active | Activity (Pseudomonas aeruginosa [18]): Active | Activity (Pseudomonas aeruginosa [19]): Active | Activity (Escherichia coli [20]): Active | Activity (Escherichia coli [21]): Active | Activity (Escherichia coli [22]): Active | Activity (Escherichia coli [23]): Active | Activity (Escherichia coli [24]): Active | Activity (Escherichia coli [25]): Active | Activity (Klebsiella pneumoniae): Active | Activity (Acinetobacter baumannii [26]): inactive | Activity (Acinetobacter baumannii [27]): inactive | Activity (Acinetobacter baumannii [28]): inactive | fractional inhibitory concentration index (FICI) (Acinetobacter baumannii [29]): 0.37 | fractional inhibitory concentration index (FICI) (Acinetobacter baumannii [30]): 0.37 | fractional inhibitory concentration index (FICI) (Acinetobacter baumannii [31]): 0.37 | Activity (Pseudomonas aeruginosa [32]): Active | Activity (Pseudomonas aeruginosa [33]): Active | Activity (Pseudomonas aeruginosa [34]): Active | Activity (Pseudomonas aeruginosa [35]): Active | Activity (Pseudomonas aeruginosa [36]): Active | Activity (Pseudomonas aeruginosa [37]): Active
